Tests used:
Type in all cases: in vivo
[1] = tested on: ducksalad (Heteranthera limosa); assay: Test B flooded paddy: ducksalad; settings: Flood, applied to paddy water at 2-leaf stage, visually evaluated after 13 to 15 days
How it was run: (§1)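 Each compound is applied to the floodwater of pots holding 2-leaf seedlings, water standing 3 cm over the soil throughout. Plants stay in a greenhouse 13 to 15 days before visual scoring against controls from 0 (no effect) to 100 (complete control).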

[2] = tested on: barnyardgrass (Echinochloa crus-galli); assay: Test B flooded paddy: barnyardgrass; settings: Flood, applied to paddy water at 2-leaf stage, visually evaluated after 13 to 15 days
How it was run: as §1

[3] = tested on: crabgrass, large (large crabgrass, Digitaria sanguinalis); assay: Test A pre-/postemergence: crabgrass, large
How it was run: (§2)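 Injury was scored visually on a 0 (no effect) to 100 (complete control) scale versus untreated controls roughly ten days after treatment in the greenhouse. Compounds, formulated in surfactant-containing non-phytotoxic solvent, went on as soil-directed preemergence spray or postemergence to one- to two-leaf plants 2–10 cm tall.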

corn (Zea mays) = assay: Test A pre-/postemergence: corn
How it was run: as §2

[4] = tested on: barnyardgrass (Echinochloa crus-galli); assay: Test A pre-/postemergence: barnyardgrass
How it was run: as §2

[5] = tested on: sedge, umbrella (small-flower umbrella sedge Cyperus difformis); assay: Test B flooded paddy: sedge, umbrella; settings: Flood, applied to paddy water at 2-leaf stage, visually evaluated after 13 to 15 days
How it was run: as §1

[6] = tested on: velvetleaf (Abutilon theophrasti); assay: Test A pre-/postemergence: velvetleaf
How it was run: as §2

[7] = tested on: wheat (Triticum aestivum); assay: Test A pre-/postemergence: wheat
How it was run: as §2

[8] = tested on: foxtail, giant (giant foxtail, Setaria faberii); assay: Test A pre-/postemergence: foxtail, giant
How it was run: as §2

[9] = tested on: pigweed (Amaranthus retroflexus); assay: Test A pre-/postemergence: pigweed
How it was run: as §2

[10] = tested on: morningglory (Ipomoea spp.); assay: Test A pre-/postemergence: morningglory
How it was run: as §2

rice (Oryza sativa) = assay: Test B flooded paddy: rice; settings: Flood, applied to paddy water at 2-leaf stage, visually evaluated after 13 to 15 days
How it was run: as §1

[11] = Postemergence, 125 g ai/ha, 0 to 100 scale, 0 is no effect, 100 is complete control
[12] = Postemergence, 500 g ai/ha, visual rating on 0 to 100 scale (0 no effect, 100 complete control), approximately ten days
[13] = Preemergence, 125 g ai/ha, 0 to 100 scale where 0 is no effect and 100 is complete control
[14] = Preemergence, 500 g ai/ha, 0 to 100 scale (0 no effect, 100 complete control)
[15] = Postemergence, 1000 g ai/ha, visual rating on 0 to 100 scale (0 no effect, 100 complete control), approximately ten days
[16] = Preemergence, 1000 g ai/ha, 0 to 100 scale, 0 is no effect, 100 is complete control
[17] = Postemergence, 500 g ai/ha, 0 to 100 scale, 0 is no effect, 100 is complete control

CON=C(c1cccc(C(F)(F)F)c1)c1nn(-c2ccnc(C(F)(F)F)c2)nc1C [Compound 140]
Plant response rating, Ducksalad (0 to 100 scale, 0 is no effect, 100 is complete control) ([1]; 250 g ai/ha): 0 | Plant response rating, Barnyardgrass (0 to 100 scale, 0 is no effect, 100 is complete control) ([2]; 250 g ai/ha): 30 | Crabgrass, Large plant response rating [3, 11]: 20 | Crabgrass, Large plant response rating [3, 12]: 50 | Plant response rating, Crabgrass, Large [3, 13]: 20 | Plant response rating, Crabgrass, Large [3, 14]: 50 | Corn plant response rating (corn (Zea mays); [11]): 20 | Corn plant response rating (corn (Zea mays); [12]): 30 | Plant response rating, Corn (corn (Zea mays); [13]): 0 | Plant response rating, Corn (corn (Zea mays); [14]): 0 | Barnyardgrass plant response rating [4, 11]: 10 | Barnyardgrass plant response rating [4, 12]: 30 | Plant response rating, Barnyardgrass [4, 13]: 0 | Plant response rating, Barnyardgrass [4, 14]: 30 | Plant response rating, Sedge, Umbrella (0 to 100 scale, 0 is no effect, 100 is complete control) ([5]; 250 g ai/ha): 0 | Plant response rating, Velvetleaf [6, 11]: 20 | Velvetleaf plant response rating [6, 12]: 70 | Plant response rating, Velvetleaf [6, 13]: 20 | Plant response rating, Velvetleaf [6, 14]: 30 | Plant response rating, Wheat [7, 11]: 10 | Wheat plant response rating [7, 12]: 20 | Plant response rating, Wheat [7, 13]: 0 | Plant response rating, Wheat [7, 14]: 0 | Foxtail, Giant plant response rating [8, 11]: 20 | Foxtail, Giant plant response rating [8, 12]: 50 | Plant response rating, Foxtail, Giant [8, 13]: 20 | Plant response rating, Foxtail, Giant [8, 14]: 70 | Plant response rating, Pigweed [9, 11]: 100 | Pigweed plant response rating [9, 12]: 100 | Plant response rating, Pigweed [9, 13]: 30 | Plant response rating, Pigweed [9, 14]: 80 | Plant response rating, Morningglory [10, 11]: 50 | Morningglory plant response rating [10, 12]: 90 | Plant response rating, Morningglory [10, 13]: 0 | Plant response rating, Morningglory [10, 14]: 0 | Plant response rating, Rice (0 to 100 scale, 0 is no effect, 100 is complete control) (rice (Oryza sativa); 250 g ai/ha): 0

Cc1nn(-c2ccc(F)cc2)nc1Cc1cccc(C(F)(F)F)c1 [Compound 157]
Plant response rating, Ducksalad (0 to 100 scale, 0 is no effect, 100 is complete control) ([1]; 250 g ai/ha): 20 | Plant response rating, Barnyardgrass (0 to 100 scale, 0 is no effect, 100 is complete control) ([2]; 250 g ai/ha): 0 | Plant response rating, Crabgrass, Large [3, 11]: 40 | Crabgrass, Large plant response rating [3, 12]: 80 | Plant response rating, Crabgrass, Large [3, 13]: 20 | Plant response rating, Crabgrass, Large [3, 14]: 90 | Plant response rating, Corn (corn (Zea mays); [11]): 20 | Corn plant response rating (corn (Zea mays); [12]): 40 | Plant response rating, Corn (corn (Zea mays); [13]): 0 | Plant response rating, Corn (corn (Zea mays); [14]): 0 | Plant response rating, Barnyardgrass [4, 11]: 20 | Barnyardgrass plant response rating [4, 12]: 70 | Plant response rating, Barnyardgrass [4, 13]: 20 | Plant response rating, Barnyardgrass [4, 14]: 100 | Plant response rating, Sedge, Umbrella (0 to 100 scale, 0 is no effect, 100 is complete control) ([5]; 250 g ai/ha): 40 | Plant response rating, Velvetleaf [6, 11]: 40 | Plant response rating, Velvetleaf [6, 13]: 0 | Plant response rating, Velvetleaf [6, 14]: 0 | Plant response rating, Wheat [7, 11]: 0 | Wheat plant response rating [7, 12]: 20 | Plant response rating, Wheat [7, 13]: 0 | Plant response rating, Wheat [7, 14]: 0 | Plant response rating, Foxtail, Giant [8, 11]: 80 | Foxtail, Giant plant response rating [8, 12]: 90 | Plant response rating, Foxtail, Giant [8, 13]: 90 | Plant response rating, Foxtail, Giant [8, 14]: 100 | Plant response rating, Pigweed [9, 11]: 100 | Pigweed plant response rating [9, 12]: 100 | Plant response rating, Pigweed [9, 13]: 80 | Plant response rating, Pigweed [9, 14]: 100 | Plant response rating, Morningglory [10, 11]: 60 | Morningglory plant response rating [10, 12]: 80 | Plant response rating, Morningglory [10, 13]: 0 | Plant response rating, Morningglory [10, 14]: 0 | Plant response rating, Rice (0 to 100 scale, 0 is no effect, 100 is complete control) (rice (Oryza sativa); 250 g ai/ha): 0

Cc1nn(-c2ccc(F)cc2)nc1C(=O)c1ccnc(C(F)(F)F)c1 [Compound 167]
Plant response rating, Ducksalad (0 to 100 scale, 0 is no effect, 100 is complete control) ([1]; 125 g ai/ha): 0 | Plant response rating, Barnyardgrass (0 to 100 scale, 0 is no effect, 100 is complete control) ([2]; 125 g ai/ha): 0 | Crabgrass, Large plant response rating [3, 15]: 100 | Plant response rating, Crabgrass, Large [3, 16]: 100 | Corn plant response rating (corn (Zea mays); [15]): 30 | Plant response rating, Corn (corn (Zea mays); [16]): 30 | Barnyardgrass plant response rating [4, 15]: 100 | Plant response rating, Barnyardgrass [4, 16]: 100 | Plant response rating, Sedge, Umbrella (0 to 100 scale, 0 is no effect, 100 is complete control) ([5]; 125 g ai/ha): 50 | Velvetleaf plant response rating [6, 15]: 50 | Plant response rating, Velvetleaf [6, 16]: 20 | Wheat plant response rating [7, 15]: 40 | Plant response rating, Wheat [7, 16]: 80 | Foxtail, Giant plant response rating [8, 15]: 100 | Plant response rating, Foxtail, Giant [8, 16]: 100 | Pigweed plant response rating [9, 15]: 100 | Plant response rating, Pigweed [9, 16]: 100 | Morningglory plant response rating [10, 15]: 100 | Plant response rating, Rice (0 to 100 scale, 0 is no effect, 100 is complete control) (rice (Oryza sativa); 125 g ai/ha): 30

CC(C)(C)c1nn(-c2ccc(F)cc2)nc1Cc1ccnc(C(F)(F)F)c1 [Compound 176]
Plant response rating, Ducksalad (0 to 100 scale, 0 is no effect, 100 is complete control) ([1]; 125 g ai/ha): 0 | Plant response rating, Barnyardgrass (0 to 100 scale, 0 is no effect, 100 is complete control) ([2]; 125 g ai/ha): 0 | Plant response rating, Crabgrass, Large [3, 11]: 0 | Crabgrass, Large plant response rating [3, 17]: 0 | Plant response rating, Crabgrass, Large [3, 13]: 0 | Plant response rating, Crabgrass, Large [3, 14]: 0 | Plant response rating, Corn (corn (Zea mays); [11]): 0 | Corn plant response rating (corn (Zea mays); [17]): 0 | Plant response rating, Corn (corn (Zea mays); [13]): 0 | Plant response rating, Corn (corn (Zea mays); [14]): 0 | Plant response rating, Barnyardgrass [4, 11]: 0 | Barnyardgrass plant response rating [4, 17]: 0 | Plant response rating, Barnyardgrass [4, 13]: 0 | Plant response rating, Barnyardgrass [4, 14]: 0 | Plant response rating, Sedge, Umbrella (0 to 100 scale, 0 is no effect, 100 is complete control) ([5]; 125 g ai/ha): 0 | Plant response rating, Velvetleaf [6, 11]: 0 | Velvetleaf plant response rating [6, 17]: 0 | Plant response rating, Velvetleaf [6, 13]: 0 | Plant response rating, Velvetleaf [6, 14]: 0 | Plant response rating, Wheat [7, 11]: 0 | Wheat plant response rating [7, 17]: 0 | Plant response rating, Wheat [7, 13]: 0 | Plant response rating, Wheat [7, 14]: 0 | Plant response rating, Foxtail, Giant [8, 11]: 0 | Foxtail, Giant plant response rating [8, 17]: 0 | Plant response rating, Foxtail, Giant [8, 13]: 0 | Plant response rating, Foxtail, Giant [8, 14]: 0 | Plant response rating, Pigweed [9, 11]: 0 | Pigweed plant response rating [9, 17]: 0 | Plant response rating, Pigweed [9, 13]: 0 | Plant response rating, Pigweed [9, 14]: 0 | Plant response rating, Morningglory [10, 11]: 0 | Morningglory plant response rating [10, 17]: 0 | Plant response rating, Morningglory [10, 13]: 0 | Plant response rating, Morningglory [10, 14]: 0 | Plant response rating, Rice (0 to 100 scale, 0 is no effect, 100 is complete control) (rice (Oryza sativa); 125 g ai/ha): 0

CCOc1nn(-c2ccc(F)cc2)nc1C(=O)c1ccnc(C(F)(F)F)c1 [Compound 177]
Plant response rating, Ducksalad (0 to 100 scale, 0 is no effect, 100 is complete control) ([1]; 125 g ai/ha): 0 | Plant response rating, Barnyardgrass (0 to 100 scale, 0 is no effect, 100 is complete control) ([2]; 125 g ai/ha): 0 | Plant response rating, Crabgrass, Large [3, 11]: 10 | Crabgrass, Large plant response rating [3, 17]: 60 | Plant response rating, Crabgrass, Large [3, 13]: 90 | Plant response rating, Crabgrass, Large [3, 14]: 100 | Plant response rating, Corn (corn (Zea mays); [11]): 20 | Corn plant response rating (corn (Zea mays); [17]): 30 | Plant response rating, Corn (corn (Zea mays); [13]): 0 | Plant response rating, Corn (corn (Zea mays); [14]): 0 | Plant response rating, Barnyardgrass [4, 11]: 0 | Barnyardgrass plant response rating [4, 17]: 20 | Plant response rating, Barnyardgrass [4, 13]: 0 | Plant response rating, Barnyardgrass [4, 14]: 70 | Plant response rating, Sedge, Umbrella (0 to 100 scale, 0 is no effect, 100 is complete control) ([5]; 125 g ai/ha): 40 | Plant response rating, Velvetleaf [6, 11]: 20 | Velvetleaf plant response rating [6, 17]: 50 | Plant response rating, Velvetleaf [6, 13]: 0 | Plant response rating, Velvetleaf [6, 14]: 20 | Plant response rating, Wheat [7, 11]: 20 | Wheat plant response rating [7, 17]: 30 | Plant response rating, Wheat [7, 13]: 0 | Plant response rating, Wheat [7, 14]: 0 | Plant response rating, Foxtail, Giant [8, 11]: 20 | Foxtail, Giant plant response rating [8, 17]: 70 | Plant response rating, Foxtail, Giant [8, 13]: 90 | Plant response rating, Foxtail, Giant [8, 14]: 100 | Plant response rating, Pigweed [9, 11]: 60 | Pigweed plant response rating [9, 17]: 100 | Plant response rating, Pigweed [9, 13]: 10 | Plant response rating, Pigweed [9, 14]: 50 | Plant response rating, Morningglory [10, 11]: 90 | Morningglory plant response rating [10, 17]: 100 | Plant response rating, Morningglory [10, 13]: 20 | Plant response rating, Morningglory [10, 14]: 40 | Plant response rating, Rice (0 to 100 scale, 0 is no effect, 100 is complete control) (rice (Oryza sativa); 125 g ai/ha): 0

— patent US9302999B2, “Substituted triazoles as herbicides” (E. I. DU PONT DE NEMOURS AND COMPANY, priority 2012, dated 2016)
